{"source": "patent US20260242390A1", "about": "“TOTAL SYNTHESES OF PORTIMINE A AND ANALOGUES THEREOF AS SMALL MOLECULE MODULATORS OF NMD3” (priority 2023, published 2026)", "test_system": "Bcl-xl", "assay": "Bcl-xl protein level in cells", "assay_type": "cell-based, human", "description": "FIG. 6. Portimine A inhibits S phase entry in Jurkat cells. Portimine A downregulates NMD3 at protein level but upregulates in mRNA level in cells, as well as some essential apoptosis proteins. […] Protein degradation of p53, Mcl1, Bid, Bim, Noxa can be rescued by MG132 or Epoxomicin. (B) NMD3 mRNA increased after PA treatment, but not ePA control compound. Jurkat cells were treated with indicated compounds for 24 hr; Cells were then fixed and perform Propidium Iodide staining.\n• 1) Portimine A and its functional analogs show stereo-selective acute toxicity in cancer cells (FIG. 1). […] (B) Structure of portimine related analogs: phenyl-portimine A (Ph-PA, 36) and epi-portimine A (ePA, 38). Structure of fully functionalized portimine A-based epimeric probe pair: portimine A-diazirine-alkyne (PA-DA, 35-2) and epi-portimine A-diazirine-alkyne (ePA-DA, 35-1). (C) Cell viability analysis of portimine A and analogs. Jurkat cells were treated with increasing concentrations of portimine A and analogs for 24 hours. All presented data as mean of biological replicated experiments (n=3). […] Jurkat cells were treated with portimine A or analogs for 12 hours at 10 nM. […] Cell lysates were fractionated by sucrose gradient (5-50%) and each fraction were analyzed by western blot. eIF6 levels increase in 60S subunit fraction and decrease in ribosome-free fractions after PA treatment. […]"}
{"compound": "C=CC1=C[C@@H]2[C@@H]3O[C@]4(CC[C@H](O4)C(C)C[C@@H](O)C3=O)CC(O)C3=NCC[C@@]32CC1", "note": "(stereo partly shown) [PA, portimine A]", "values": [{"measurement": "Bcl-xl protein level after treatment", "result": "downregulated"}]}
